Source: patent US8084399B2, “Process for screening of a binding amphiphilic peptides specific for hairpin RNA” (priority 2009, dated 2011)
Where no end group is shown, it is not given here. [ ]: non-standard residue; d: D form. Orn = NCCC[C@H](N)C(=O)O; Dap = NC[C@H](N)C(=O)O

Experiments:
RRE hairpin RNA = experiment: Fluorescence anisotropy competition with Rev-N-rhodamine probe, binding to RRE hairpin RNA; set-up: species or system HIV; conditions: 20° C., pH 7.4, read-out: Dissociation constant, RRE
In short: (§1)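 Competitive fluorescence anisotropy at 20° C in 20 mM HEPES pH 7.4, 140 mM NaCl, 5 mM KCl, 1 mM MgCl2. Heat-refolded target RNA bound to 10 nM Rev-N-rhodamine probe; peptide titrated until anisotropy returned to baseline, and Kd fitted from a competition binding equation.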

TAR hairpin RNA = experiment: Fluorescence anisotropy competition with Rev-N-rhodamine probe, binding to TAR hairpin RNA; set-up: species or system HIV; conditions: fluorescence anisotropy, 20° C., pH 7.4; read-out: Dissociation constant, TAR
In short: as §1

16S ribosomal RNA A-site = experiment: Fluorescence anisotropy competition with Rev-N-rhodamine probe, binding to 16S A-site; conditions: 20° C., pH 7.4, read-out: Dissociation constant, 16S A-site
In short: as §1

IRES domain IV hairpin = experiment: Fluorescence anisotropy competition with Rev-N-rhodamine probe, binding to IRES hairpin; set-up: species or system HCV; conditions: for differentiation coefficient (IRES): (mean Kd to other hairpin RNA)/(Kd to one hairpin RNA); for binding strength to IRES, in words: compared with the original peptide; for Kd: fluorescence anisotropy, 20° C., pH 7.4, read-out: Dissociation constant, IRES
In short: as §1

[1] = Circular dichroism (CD), percentage of alpha-helix; format: physicochemical; conditions: CD at 20° C., condition not given; for Alpha-helical rate (%), second value of pair: value after the slash; for Alpha-helical rate (%), first value of pair: value before the slash
In short: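 Spectra recorded at 20 °C, 190–250 nm, three averaged scans, background-corrected and converted to mean residue ellipticity. Helix fraction derived from [θ] at 222 nm relative to full-helix and random-coil reference values, which depend on residue number and temperature.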

IRES RNA [2] = experiment: Tryptophan fluorescence strength on addition of target RNA; format: binding, HCV
Procedure: Fluorescence strength was measured to investigate target RNA binding of the third generation peptides. When tryptophan is activated by 285 nm light, it becomes fluorescent at the wavelength. Changes of fluorescence resulted from the binding respectively to different targets such as IRES, RRE, TAR and 16S A-site RNA, were measured. 0.02 equivalent of target RNA was added slowly to 1 uM peptide solution containing tryptophan.

IRES RNA [3] = experiment: Solid surface method (biotin peptide on streptavidin plate, isotope-labeled RNA) with or without tRNAmix; format: binding, HCV; conditions: comparison with/without tRNAmix, in words
Procedure: Solid surface method was performed to investigate specificity to target RNA of the third generation peptides. Particularly, biotin was conjugated to N-terminal of the peptide, resulting in the preparation for streptavidin binding. 5′-end of target RNA was labeled with an isotope. Streptavidin coated plate was prepared, to which the amphiphilic peptide was adhered at different concentrations. The plate was reacted with a certain amount of the isotope-labeled RNA, followed by washing. Only the RNA conjugated with the amphiphilic peptide was obtained. IC50 was calculated based on the concentration of the target RNA. Experiments were performed in the presence and in the absence of tRNA^mix (Sigma-Aldrich, Germany), and the results were compared.

Row | Substance | Kd (RRE hairpin RNA) | Kd (TAR hairpin RNA) | Kd (16S ribosomal RNA A-site) | differentiation coefficient (IRES) (IRES domain IV hairpin) | binding strength to IRES, in words (IRES domain IV hairpin) | Kd (IRES domain IV hairpin) | Alpha-helical rate (%), second value of pair [1] | Alpha-helical rate (%), first value of pair [1] | Fluorescence strength of tryptophan reduced by (IRES RNA [2]; wavelength moved to shorter site, IRES) | Fluorescence strength of tryptophan at #7 reduced from that of tryptophan at #14 of peptide 3h (IRES RNA [2]; in the presence of IRES) | IC50 to IRES RNA in the presence or in the absence of tRNAmix (IRES RNA [3])
1 | LKKLLKLLKKLLKWAG [2u, tryptophan scanned second generation peptide] | 18 nM | 7.8 nM | 3.3 nM | 14 | significantly increased | 0.69 nM | 52% | 20% | 1.6 fold |  | 
2 | LKKLLKWLOrnKLLDapLAG (LKKLLKWL[Orn]KLL[Dap]LAG-NH2; N-terminus assumed; SMILES CC(C)C[C@H](NC(=O)[C@H](CN)NC(=O)[C@H](CC(C)C)NC(=O)[C@H](CC(C)C)NC(=O)[C@H](CCCCN)NC(=O)[C@H](CCCN)NC(=O)[C@H](CC(C)C)NC(=O)[C@H](Cc1c[nH]c2ccccc12)NC(=O)[C@H](CCCCN)NC(=O)[C@H](CC(C)C)NC(=O)[C@H](CC(C)C)NC(=O)[C@H](CCCCN)NC(=O)[C@H](CCCCN)NC(=O)[C@@H](N)CC(C)C)C(=O)N[C@@H](C)C(=O)NCC(N)=O) [peptide 3d, third generation peptide, both faces modified] | 26 nM | 24 nM | 25 nM | 45 |  | 0.55 nM | 38% | 32% |  | 2.3 fold | not much different
3 | WKKLLKLLKKLLKLAG [2n, tryptophan scanned second generation peptide] | 2.5 nM | 2 nM | 0.76 nM | 2.4 | significantly increased | 0.74 nM | 65% | 48% |  |  | 
